Results on nine molecules are retold here after article PMC11604048, “Constrained TACC3 peptidomimetics for a non-canonical protein–protein interface elucidate allosteric communication in Aurora-A kinase” (Chemical Science, 2024).

Residue numbers refer to the chain shown, from its start. In names and notes the source's numbering stands. *1 amine or outer side, *2 acyl side, *3 side chain or, on linkers, in order; H or OH if unused. Where a SMILES comes first, the peptide text is derived from it. Bridges are numbered along the chain shown (N, C = ends). Where no end group is shown, it is not given here. [ ]: non-standard residue; d: D form. The star is where a group is joined. 5FAM = O=C1OC2(c3ccc(O)cc3Oc3cc(O)ccc32)c2ccc(C(=O)*)cc21; Biphenyl(4,4'-CH2)2 = c1cc(-c2ccc(C[*:2])cc2)ccc1C[*:1]; Pro(trans-4-F) = O=C(O)[C@@H]1C[C@@H](F)CN1; Phe(4-Br) = N[C@@H](Cc1ccc(Br)cc1)C(=O)O; Phe(4-Cl) = N[C@@H](Cc1ccc(Cl)cc1)C(=O)O; Phe(4-I) = N[C@@H](Cc1ccc(I)cc1)C(=O)O; Nle = CCCC[C@H](N)C(=O)O; Ahx = NCCCCCC(=O)O

Broadly, the Kd is the free concentration of one partner at which half of the binding sites on the other are occupied at equilibrium, for simple one-to-one binding. The term IC50 denotes the point on the concentration scale where inhibition reaches its midpoint.

A short description of series [1]: Peptide enzymatic degradation assay, α-chymotrypsin. The format is in vitro ADME, bovine. Conditions: isolated enzyme chymotrypsin; α-chymotrypsin (bovine pancreas), peptide 100 µM, peptide/enzyme molar ratio [P]/[E]= 25, HEPES 25 mM, pH 7.5, 25 °C, 6 hours; RP-HPLC peak area, exponential decay fit; three independent experiments, mean ± SD; SD; read-out: t1/2 in the presence of α-chymotrypsin. The method, then: into individual aliquots at -20 °C. […]
a concentration of 1 mg mL−1 concentration. The digestion samples were immediately prepared by mixing […]
were then incubated at 25 °C for 6 hours. […]
thermo-shaker for 6 hours. […]
presence of enzyme (t=0). […]
(§1) r = r଴ + A x e భ Eq. (SI - 10)
τ = tଵ ln(2) Eq. (SI - 11)
In all cases, control samples were […]
replicates and error bars indicating the corresponding SD. […]

Series [2] concerns the target T1, Aurora-A122-403-C290A/C393A (Homo sapiens, UniProt O14965, C290A/C393A).
T1 construct: Human Aurora-A kinase domain 122-403 wild-type or C290A/ C393A mutant; His tag (pET30TEV vector) (N, cleaved yes); made in house; host or cells: E. coli RIL, co-expressed with lambda phosphatase (Aurora-A); tracer by solid phase synthesis
T1 sequence (O14965 122-403 C290A/C393A): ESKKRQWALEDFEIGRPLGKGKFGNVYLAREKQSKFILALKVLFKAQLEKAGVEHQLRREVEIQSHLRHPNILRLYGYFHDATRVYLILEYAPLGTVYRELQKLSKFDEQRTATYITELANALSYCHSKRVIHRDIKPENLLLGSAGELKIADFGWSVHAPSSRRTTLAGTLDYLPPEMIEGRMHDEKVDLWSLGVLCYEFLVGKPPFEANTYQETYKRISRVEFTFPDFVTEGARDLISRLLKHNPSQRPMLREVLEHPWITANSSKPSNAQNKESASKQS
Put plainly: Isothermal titration calorimetry (ITC). The series is classed as binding. Conditions: ITC as E13. The method, then:
Isothermal titration calorimetry (ITC). ITC experiments were carried out using a MicroCal PEAQ-ITC system (Malvern Panalytical) at 25 °C. A stock solution of Aurora-A 122-403-290A/C393A was dialyzed into ITC buffer overnight (25 mM Tris buffer, pH= 7.5; 150 mM NaCl; 5 mM MgCl2; 5 % v/v glycerol), and the same buffer was employed to resuspend a solid portion of the testing peptides. For each experiment, initially, the cell was filled with 275 µl of Aurora-A122-403-290A/C393A (46 μM) and the syringe was loaded with the corresponding peptide at 1.25 mM concentration. An initial injection of 0.5 μL was then followed by 13 injections of 3 μL, every 150 s, with a constant syringe rotation speed of 750 rpm throughout. The signal for the enthalpy of dilution of each peptide into buffer was independently measured in a control titration experiment and then subtracted from the experimental binding traces. The Kd, ΔG°, ΔH° and -TΔS° values were determined via the MicroCal PEAQ-ITC analysis software (Malvern Paranalytical) using a single-site binding model. […]

For series [3], the target named is T1, Aurora-A122-403-C290A/C393A. Put plainly: Competition FA assay against FAM-Ahx-TACC3 522-536 tracer. The format is binding. Conditions: SD; read-out: IC50.
The target is the same in series [4]. Put plainly: FA direct binding assay (Aurora-A titrated into FAM-Ahx-labelled peptide). Also noted: ΔG: unit not given here. Conditions: 50 nM fluorescein-labelled peptide. The method, then:
Fluorescence anisotropy (FA) assays – General information.
All assays were performed using 384-well plates(Greiner Bio-one, UK). […]
produced as described previously.11 All samples were prepared in 25 mM Tris,150 mM NaCl, 5 mM MgCl2, […]
(PerkinElmer; Waltham, MA, USA).The parameters were set as follows: Excitation wavelength = 480 nm […]
Measured data were processed and analysed as previously described.12 Specifically, the perpendicular intensity (P) and parallel intensity (S) were subtracted by the control values and used for calculations of intensity and anisotropy using the following Equations 1, 2, 3, 4, and 5:
I= (2PG) + S Eq. (SI − 5)
r = (S − PG) Eq. (SI − 6)
L = r − r௠௜௡ Eq. (SI − 7)
y = (k + x + [FL]) − ඥ(k + x + [FL]2 − 4 ∗ x ∗ [FL]) Eq. (SI − 8)
y = r + r௠௜௡ − r௠௔௫ Eq. (SI − 9)
Where I = total intensity; P = perpendicular intensity; S = parallel intensity; G = instrument factor; r = anisotropy; Lb = ligand bound fraction; λ = change in intensity between bound and unbound states which […]
FA direct binding assays. […]
starting from 700 μM, diluted over 24 points in a 1/2 regime using the FAM-Ahx-labeled peptides at a final fixed concentration of 50 nM per well.

Series [5] has the same target. Put plainly: Variable-temperature fluorescence anisotropy (VT-FA) Van't Hoff analysis. The series is classed as binding. Here is the method:
Variable-temperature fluorescence anisotropy (VT-FA) Van't Hoff analysis. Variable temperature-fluorescent anisotropy assays were performed in 384-well plates (Greiner Bio-one) with Aurora-A 122-403-290A/C393A protein dialyzed into different assay buffers before use. In this experiment, we prepared five […]
Buffer 1 – 25 mM HEPES, 150 mM NaCl, 5 mM MgCl2, pH= 7.5, Buffer 2 – 25 mM Tris, 150 mM NaCl, 5 mM MgCl2, pH= 7.5, Buffer 3 – 25 mM HEPES, 5 mM MgCl2, pH= 7.5, Buffer 4– 25 mM HEPES, 150 mM NaCl, 5 mM MgCl2, pH= 6.0, Buffer 5– 25 mM HEPES, 150 mM NaCl, 5 mM MgCl2, pH= 8.0, The protein concentration in the first well started at 237 μM in the corresponding buffer, and was diluted over 16 points in a 1/2 dilution regime. The concentration of the labeled peptide was fixed at 50 nM per well. After incubation of the plate at room temperature for 1 h, the plates were read at increasing intervals of 2.5°C, following a minimum period of 5 min equilibration at each temperature. The data was processed as previously described and the ln Ka at each temperature plotted against 1/T (K). The ΔG°, ΔH° and -T*ΔS° were calculated according to Van’t Hoff’s equation (6): […]
as §1
τ = tଵ ln(2) Eq. (SI - 11) […]
Western blots were performed using an anti-Phospho-Thr288
A general note: In fluorescence polarisation assays a small probe gives low polarisation when free and higher when bound to something large.

Series [6] addresses T2, Aurora-A 122-403 (Homo sapiens, UniProt O14965).
T2 chain: T1 sequence (O14965 122-403 C290A/C393A) with A169C, A272C
Put plainly: fluorescence anisotropy competition.

The mark [7] stands for this setting: as E43, Buffer 1 – 25 mM HEPES, 150 mM NaCl, 5 mM MgCl2, pH= 7.5.
Setting [8] is: as E43, Buffer 2 – 25 mM Tris, 150 mM NaCl, 5 mM MgCl2, pH= 7.5.
[9] abbreviates: as E43, Buffer 3 – 25 mM HEPES, 5 mM MgCl2, pH= 7.5.
The mark [10] stands for this setting: as E43, Buffer 4 – 25 mM HEPES, 150 mM NaCl, 5 mM MgCl2, pH= 6.0.
Setting [11] is: as E43, Buffer 5 – 25 mM HEPES, 150 mM NaCl, 5 mM MgCl2, pH= 8.0.

Consider `CC(=O)N[C@@H](CC(C)C)C(=O)N[C@@H](CCC(=O)O)C(=O)N[C@@H](CC(C)C)C(=O)N[C@@H](CCCCN)C(=O)N[C@@H](CCC(=O)O)C(=O)N[C@@H](CCC(=O)O)C(=O)N[C@@H](CO)C(=O)N[C@@H](Cc1ccccc1)C(=O)N[C@@H](CCCNC(=N)N)C(=O)N[C@@H](CC(=O)O)C(=O)N1CCC[C@H]1C(=O)N[C@@H](C)C(=O)N[C@@H](CCC(=O)O)C(=O)N[C@H](C(=O)N[C@@H](CC(C)C)C(N)=O)C(C)C` [TACC3 518-532], for which, in series [1], the half-life at 100 µM came to 32 ± 4 min. The Kd in series [2] (N restrained fit, Run 1) was determined as 30.3 µM; in series [2] (N restrained fit, Run 2), 34.5 µM; in series [2] (N unrestrained fit, Run 1) it was 46 µM; in series [2] (N unrestrained fit, Run 2) it was 36.8 µM. Further, in series [3], the IC50 worked out at 123 ± 6 µM.
For the molecule `CC(C)C[C@H](NC(=O)[C@@H](NC(=O)[C@H](CCC(=O)O)NC(=O)[C@H](C)NC(=O)[C@@H]1C[C@@H](F)CN1C(=O)[C@H](CC(=O)O)NC(=O)[C@@H]1CSCc2ccc(cc2)-c2ccc(cc2)CSC[C@H](NC(=O)[C@H](CCC(=O)O)NC(=O)[C@H](CC(C)C)NC(=O)CCCCCNC(=O)c2ccc3c(c2)C(=O)OC32c3ccc(O)cc3Oc3cc(O)ccc32)C(=O)N[C@@H](CCCCN)C(=O)N[C@@H](CCC(=O)O)C(=O)N[C@@H](CCC(=O)O)C(=O)N[C@@H](CO)C(=O)N[C@@H](Cc2ccc(I)cc2)C(=O)N1)C(C)C)C(N)=O` [FAM-Ahx-TACC3 518-532-L/R-Bph-IF/fP] ({5FAM-Ahx}-LECKEES[Phe(4-I)]CD[Pro(trans-4-F)]AEVL-NH2; linker 3-9 via Biphenyl(4,4'-CH2)2), the Kd in series [4] (Table S6, direct FA titration, Tris buffer pH 7.5, mean ± SD, n = 6, read-out: Kd) was 1420 ± 240 nM. In addition, the ΔG in series [4] (Table S6, from direct FA titration, mean ± SD, n = 6) is -33.4 ± 0.5. Further, the ΔΔGConstrained-WT in series [5] (VT-FA Van't Hoff, 50 nM FAM-Ahx tracers, 25-35 °C, constrained minus linear FAM-Ahx-TACC3 518-532, Buffer 1 – 25 mM HEPES, 150 mM NaCl, 5 mM MgCl2, pH= 7.5, triplicate) is -4.50 ± 3.6 kJ mol -1; in series [5] (setting [8]) it was -3.17 ± 2.0 kJ mol -1; in series [5] (setting [9]), -6.82 ± 5.9 kJ mol -1; in series [5] (setting [10]) it was -4.06 ± 4.1 kJ mol -1; in series [5] (setting [11]) it was -3.02 ± 1.8 kJ mol -1. In addition, the ΔTΔSConstrained-WT in series [5] (setting [7]) is recorded as -17.91 ± 2.4 kJ mol -1; in series [5] (setting [8]), -17.85 ± 1.6 kJ mol -1; in series [5] (setting [9]), -22.94 ± 2.9 kJ mol -1; in series [5] (setting [10]) it was -11.33 ± 2.0 kJ mol -1; in series [5] (setting [11]), -13.22 ± 0.9 kJ mol -1. The ΔΔHConstrained-WT in series [5] (setting [7]) is recorded as 14.18 ± 2.5 kJ mol -1; in series [5] (setting [8]), 14.67 ± 0.4 kJ mol -1; in series [5] (setting [9]), 16.12 ± 3.0 kJ mol -1; in series [5] (setting [10]), 7.27 ± 2.1 kJ mol -1; in series [5] (setting [11]) it was 10.19 ± 0.9 kJ mol -1.
EESFRDPAE[Nle]LGTGA [TACC3 V531nL 522-536] had an IC50 in series [6] of over 300 µM.
Turning to EES[Phe(4-Br)]RDPAEVLGTGA [TACC3 (4-Br)Phe525 522-536], the IC50 in series [6] was 34 µM.
The same measure, in the same setting: with LELKEESFRDPAEVL (not fully specified; L520C/R526C biphenyl constraint; Aurora-A C290A+C393A) [TACC3 L/R-Bph 518-532] the figure was about 30 µM; with EESFRD[cis‑Pro(4-F)]AEVLGTGA [TACC3 cis-(4-F)Pro528 522-536], over 200 µM; with EESFRD[trans‑Pro(4-F)]AEVLGTGA [TACC3 trans-(4-F)Pro528 522-536], 60 µM.
Same read-out and setting: with EES[Phe(4-Cl)]RDPAEVLGTGA [TACC3 (4-Cl)Phe525 522-536] the figure was 46 µM; with EESFRDPAEV[Nle]GTGA [TACC3 L532nL 522-536], 213 µM.
